Laboratory results published in the supplement of paper PMC12076712.

Legend:
Assay in all cases: pIC50, kinobeads binding competition
Settings in all cases: cell material: Jurkat lysate
BRAF = BRAF (UniProt P15056)
MERTK = biological target: T1, MERTK (UniProt Q12866)
T1 sequence (whole entry): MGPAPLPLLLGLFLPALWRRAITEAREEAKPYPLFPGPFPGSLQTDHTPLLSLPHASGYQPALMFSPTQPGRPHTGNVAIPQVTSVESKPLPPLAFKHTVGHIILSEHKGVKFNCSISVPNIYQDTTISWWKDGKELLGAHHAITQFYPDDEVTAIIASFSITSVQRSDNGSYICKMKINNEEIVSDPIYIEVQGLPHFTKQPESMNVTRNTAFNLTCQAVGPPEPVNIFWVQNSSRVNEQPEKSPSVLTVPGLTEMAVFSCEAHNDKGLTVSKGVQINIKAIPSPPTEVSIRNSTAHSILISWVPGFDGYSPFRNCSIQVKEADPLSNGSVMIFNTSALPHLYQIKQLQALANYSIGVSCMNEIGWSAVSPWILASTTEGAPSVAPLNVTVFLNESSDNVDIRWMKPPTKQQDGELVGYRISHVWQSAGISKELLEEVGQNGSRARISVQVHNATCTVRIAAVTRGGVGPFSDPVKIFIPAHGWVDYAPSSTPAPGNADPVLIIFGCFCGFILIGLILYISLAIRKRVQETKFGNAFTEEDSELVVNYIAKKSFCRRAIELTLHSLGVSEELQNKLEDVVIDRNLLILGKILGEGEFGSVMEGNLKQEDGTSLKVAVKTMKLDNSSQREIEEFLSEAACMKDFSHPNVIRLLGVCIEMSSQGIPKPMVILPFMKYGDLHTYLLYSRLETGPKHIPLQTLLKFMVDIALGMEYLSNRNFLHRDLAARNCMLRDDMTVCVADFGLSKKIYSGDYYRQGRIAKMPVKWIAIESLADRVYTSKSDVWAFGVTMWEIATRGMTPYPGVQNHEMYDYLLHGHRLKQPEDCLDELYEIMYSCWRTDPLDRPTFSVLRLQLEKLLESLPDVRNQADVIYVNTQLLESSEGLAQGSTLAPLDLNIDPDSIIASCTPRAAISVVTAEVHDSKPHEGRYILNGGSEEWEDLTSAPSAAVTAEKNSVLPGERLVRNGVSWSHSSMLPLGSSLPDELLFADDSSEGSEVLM

UniProt P35626 = biological target: T2, UniProt P35626
T2 sequence (whole entry): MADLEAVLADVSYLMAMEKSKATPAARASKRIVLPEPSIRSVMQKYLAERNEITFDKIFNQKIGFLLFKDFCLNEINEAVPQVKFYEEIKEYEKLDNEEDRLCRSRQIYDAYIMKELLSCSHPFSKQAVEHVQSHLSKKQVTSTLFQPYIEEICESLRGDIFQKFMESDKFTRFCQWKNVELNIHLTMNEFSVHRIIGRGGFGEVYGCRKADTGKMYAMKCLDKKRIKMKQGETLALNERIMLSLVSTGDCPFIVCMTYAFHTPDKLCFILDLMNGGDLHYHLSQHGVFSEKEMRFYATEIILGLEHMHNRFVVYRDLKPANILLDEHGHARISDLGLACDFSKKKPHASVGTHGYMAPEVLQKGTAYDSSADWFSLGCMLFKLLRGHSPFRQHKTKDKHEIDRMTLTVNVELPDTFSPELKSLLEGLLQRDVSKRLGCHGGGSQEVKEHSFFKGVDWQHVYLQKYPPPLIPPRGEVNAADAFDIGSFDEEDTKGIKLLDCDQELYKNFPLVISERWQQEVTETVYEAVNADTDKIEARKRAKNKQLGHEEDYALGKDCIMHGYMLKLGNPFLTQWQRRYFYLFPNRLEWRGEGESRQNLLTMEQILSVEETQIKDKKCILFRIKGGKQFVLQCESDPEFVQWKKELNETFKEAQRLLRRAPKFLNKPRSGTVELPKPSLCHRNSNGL

MAST3 = MAST3 (UniProt O60307)
Chain of MAST3 (O60307 whole entry): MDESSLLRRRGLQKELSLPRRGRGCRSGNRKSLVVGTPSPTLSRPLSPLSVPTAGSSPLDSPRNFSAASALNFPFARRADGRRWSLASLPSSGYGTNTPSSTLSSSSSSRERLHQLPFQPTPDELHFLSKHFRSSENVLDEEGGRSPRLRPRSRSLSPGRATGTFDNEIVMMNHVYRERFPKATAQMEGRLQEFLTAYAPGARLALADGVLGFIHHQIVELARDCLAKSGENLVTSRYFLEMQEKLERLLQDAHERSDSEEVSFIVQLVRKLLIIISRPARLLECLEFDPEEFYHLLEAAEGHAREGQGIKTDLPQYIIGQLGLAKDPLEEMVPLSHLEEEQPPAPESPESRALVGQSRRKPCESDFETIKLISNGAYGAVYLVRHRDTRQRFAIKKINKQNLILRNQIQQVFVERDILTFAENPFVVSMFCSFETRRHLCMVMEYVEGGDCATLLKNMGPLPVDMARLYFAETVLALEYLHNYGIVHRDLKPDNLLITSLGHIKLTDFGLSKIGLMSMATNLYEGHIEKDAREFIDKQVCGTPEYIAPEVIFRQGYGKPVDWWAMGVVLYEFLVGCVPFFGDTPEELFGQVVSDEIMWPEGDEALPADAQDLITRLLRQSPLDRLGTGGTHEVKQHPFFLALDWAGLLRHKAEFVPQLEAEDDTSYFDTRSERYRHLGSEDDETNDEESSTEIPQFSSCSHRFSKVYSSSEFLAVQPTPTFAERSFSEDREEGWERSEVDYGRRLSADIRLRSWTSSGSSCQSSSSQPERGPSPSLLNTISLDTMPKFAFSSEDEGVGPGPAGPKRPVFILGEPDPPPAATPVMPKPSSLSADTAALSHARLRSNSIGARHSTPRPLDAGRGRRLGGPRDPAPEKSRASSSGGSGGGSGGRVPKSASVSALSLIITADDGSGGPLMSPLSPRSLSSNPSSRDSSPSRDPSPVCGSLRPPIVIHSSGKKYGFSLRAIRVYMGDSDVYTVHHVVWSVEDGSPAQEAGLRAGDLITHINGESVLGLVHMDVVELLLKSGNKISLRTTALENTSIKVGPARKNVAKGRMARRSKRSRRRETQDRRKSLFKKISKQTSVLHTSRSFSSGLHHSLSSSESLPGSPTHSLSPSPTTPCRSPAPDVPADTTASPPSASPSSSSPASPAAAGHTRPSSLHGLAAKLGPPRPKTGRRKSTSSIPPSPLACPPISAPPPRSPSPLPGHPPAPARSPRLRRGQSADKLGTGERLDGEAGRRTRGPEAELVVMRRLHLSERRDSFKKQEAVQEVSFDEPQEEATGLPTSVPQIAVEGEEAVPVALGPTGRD

SRPK2 = SRPK2 (UniProt P78362)
Chain of SRPK2 (P78362 whole entry, looked up): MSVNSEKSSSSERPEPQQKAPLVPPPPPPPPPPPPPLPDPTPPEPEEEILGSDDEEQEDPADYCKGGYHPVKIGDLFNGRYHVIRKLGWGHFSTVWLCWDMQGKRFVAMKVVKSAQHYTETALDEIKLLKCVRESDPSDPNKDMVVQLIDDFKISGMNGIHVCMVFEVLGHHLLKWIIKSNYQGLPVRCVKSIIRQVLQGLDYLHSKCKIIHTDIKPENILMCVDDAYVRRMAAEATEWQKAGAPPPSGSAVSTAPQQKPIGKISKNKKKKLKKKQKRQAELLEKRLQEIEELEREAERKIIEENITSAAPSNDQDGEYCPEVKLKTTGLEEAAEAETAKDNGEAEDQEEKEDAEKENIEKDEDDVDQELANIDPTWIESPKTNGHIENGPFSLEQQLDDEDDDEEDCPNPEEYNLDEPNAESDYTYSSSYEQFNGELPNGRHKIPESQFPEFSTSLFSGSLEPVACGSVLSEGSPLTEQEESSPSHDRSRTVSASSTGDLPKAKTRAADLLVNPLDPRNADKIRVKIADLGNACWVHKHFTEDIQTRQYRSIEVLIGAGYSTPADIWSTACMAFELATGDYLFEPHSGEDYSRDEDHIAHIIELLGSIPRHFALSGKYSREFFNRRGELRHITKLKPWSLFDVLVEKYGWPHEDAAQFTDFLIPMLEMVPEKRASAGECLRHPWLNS

PKMYT1 = biological target: T3, PKMYT1 (UniProt Q99640)
T3 sequence (whole entry): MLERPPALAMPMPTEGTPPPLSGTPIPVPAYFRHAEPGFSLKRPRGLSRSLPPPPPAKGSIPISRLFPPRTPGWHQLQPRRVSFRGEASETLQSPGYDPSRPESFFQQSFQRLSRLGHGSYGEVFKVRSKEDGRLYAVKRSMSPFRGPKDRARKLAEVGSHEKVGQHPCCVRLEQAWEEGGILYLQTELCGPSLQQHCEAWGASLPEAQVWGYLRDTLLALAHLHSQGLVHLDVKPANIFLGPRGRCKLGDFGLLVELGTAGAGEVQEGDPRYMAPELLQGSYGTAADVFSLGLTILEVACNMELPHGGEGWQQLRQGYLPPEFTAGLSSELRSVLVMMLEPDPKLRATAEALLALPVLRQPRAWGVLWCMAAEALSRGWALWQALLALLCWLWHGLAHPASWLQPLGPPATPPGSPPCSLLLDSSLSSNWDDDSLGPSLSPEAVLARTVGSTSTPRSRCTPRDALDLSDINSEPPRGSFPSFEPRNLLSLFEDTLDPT

Measured: pIC50

Chain of BRAF (P15056 whole entry): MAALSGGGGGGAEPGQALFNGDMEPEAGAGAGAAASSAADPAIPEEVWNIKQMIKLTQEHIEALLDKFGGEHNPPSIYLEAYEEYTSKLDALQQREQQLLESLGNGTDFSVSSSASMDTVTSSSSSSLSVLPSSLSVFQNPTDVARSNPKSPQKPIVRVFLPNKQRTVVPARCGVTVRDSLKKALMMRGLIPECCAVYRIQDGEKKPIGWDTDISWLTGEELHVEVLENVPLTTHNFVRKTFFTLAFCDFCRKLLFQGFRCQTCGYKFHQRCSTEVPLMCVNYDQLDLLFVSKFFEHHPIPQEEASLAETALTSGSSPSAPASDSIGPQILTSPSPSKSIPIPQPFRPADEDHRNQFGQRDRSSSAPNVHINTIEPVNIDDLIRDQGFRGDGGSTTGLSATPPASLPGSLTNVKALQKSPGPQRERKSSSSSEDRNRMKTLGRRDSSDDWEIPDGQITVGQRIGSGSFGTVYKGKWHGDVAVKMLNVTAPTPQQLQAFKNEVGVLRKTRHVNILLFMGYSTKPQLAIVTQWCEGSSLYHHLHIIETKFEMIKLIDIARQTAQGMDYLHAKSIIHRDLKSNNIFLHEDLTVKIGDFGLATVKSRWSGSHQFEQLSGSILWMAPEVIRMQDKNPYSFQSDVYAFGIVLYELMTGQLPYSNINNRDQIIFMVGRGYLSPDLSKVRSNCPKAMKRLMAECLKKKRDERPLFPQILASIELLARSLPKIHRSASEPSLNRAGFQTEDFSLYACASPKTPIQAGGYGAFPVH

CCc1cnn2c(NCc3ccc[n+]([O-])c3)cc(N3CCCC[C@H]3CCO)nc12 [dinaciclib]
< 4.52: all assays above
